The results in this text go back to patent US10844049B2, “GLP-1R agonists and uses thereof” (QILU REGOR THERAPEUTICS INC., priority 2018, dated 2020).

For the assay, the target named is GLP1R (Homo sapiens, UniProt P43220). Kind of assay: GLP1R cAMP HTRF assay, HEK293/GLP-1R/CRE/Luc (HEK293T cells). Type of assay: cell-based. The following applies: read-out: EC50. The method, boiled down: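 cAMP accumulation via HTRF after 30 min, 37 °C exposure of 1000 receptor-expressing cells/well to compound (0.5% DMSO final) in IBMX (500 μM)/0.1% BSA DPBS.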
GLP1R, sequence (P43220 24-463): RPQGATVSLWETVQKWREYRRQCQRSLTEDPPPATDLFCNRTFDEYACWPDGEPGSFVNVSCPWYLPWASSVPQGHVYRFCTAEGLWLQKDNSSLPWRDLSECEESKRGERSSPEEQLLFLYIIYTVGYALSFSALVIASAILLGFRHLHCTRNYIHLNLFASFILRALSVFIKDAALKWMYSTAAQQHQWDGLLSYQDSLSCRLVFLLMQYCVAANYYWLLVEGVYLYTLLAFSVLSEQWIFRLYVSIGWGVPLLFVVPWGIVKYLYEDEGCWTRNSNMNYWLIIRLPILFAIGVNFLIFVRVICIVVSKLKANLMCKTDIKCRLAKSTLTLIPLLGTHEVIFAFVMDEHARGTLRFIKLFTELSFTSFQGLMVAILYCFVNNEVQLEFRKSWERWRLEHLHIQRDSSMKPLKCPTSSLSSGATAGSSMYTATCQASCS
For orientation: In TR-FRET formats the signal depends on donor and acceptor labels being close together.
Take `O=C(O)c1ccc2nc(CN3CC=C(c4nc(OCc5ccc(Cl)cc5F)ncc4F)CC3)n(C[C@@H]3CCO3)c2c1` [Compound 126, (S)-2-((4-(2-(4-chloro-2-fluorobenzyloxy)-5-fluoropyrimidin-4-yl)-5,6-dihydropyridin-1(2H)-yl)methyl)-1-(oxetan-2-ylmethyl)-1H-benzo[d]imidazole-6-carboxylic acid]: the EC50 is at most 15 nM.

Regarding `O=C(O)c1ccc2nc(CN3CC=C(c4cc(NCc5ccc(Cl)cc5F)ccc4F)CC3)n(C[C@@H]3CCO3)c2c1` [Compound 127, (S)-2-((4-(5-((4-chloro-2-fluorobenzyl)amino)-2-fluorophenyl)-3,6-dihydropyridin-1(2H)-yl)methyl)-1-(oxetan-2-ylmethyl)-1H-benzo[d]imidazole-6-carboxylic acid], the EC50 is at most 150 nM.

`O=C(O)c1ccc2nc(CN3CC=C(c4cc(OCc5ccc(Cl)cc5F)ncc4F)CC3)n(C[C@@H]3CCO3)c2c1` [Compound 128, (S)-2-((2′-((4-chloro-2-fluorobenzyl)oxy)-5′-fluoro-3,6-dihydro-[4,4′-bipyridin]-1(2H)-yl)methyl)-1-(oxetan-2-ylmethyl)-1H-benzo[d]imidazole-6-carboxylic acid]: the 50% effective concentration (EC50) was at most 150 nM.

With `O=C(O)c1ccc2nc(CN3CC=C(c4ccc(F)c(NCc5ccc(Cl)cc5F)c4)CC3)n(C[C@@H]3CCO3)c2c1` [Compound 129, (S)-2-((4-(3-((4-chloro-2-fluorobenzyl)amino)-4-fluorophenyl)-3,6-dihydropyridin-1(2H)-yl)methyl)-1-(oxetan-2-ylmethyl)-1H-benzo[d]imidazole-6-carboxylic acid], the EC50 was at most 15 nM.

As for `O=C(O)c1ccc2nc(CN3CC=C(c4ccnc(NCc5ccc(Cl)cc5F)c4)CC3)n(C[C@@H]3CCO3)c2c1` [Compound 130, (S)-2-((2′-((4-chloro-2-fluorobenzyl)amino)-3,6-dihydro-[4,4′-bipyridin]-1(2H)-yl)methyl)-1-(oxetan-2-ylmethyl)-1H-benzo[d]imidazole-6-carboxylic add], the EC50 was at most 1000 nM.

Turning to `O=C(O)c1ccc2nc(CN3CC=C(c4nc(OCc5ccc(Cl)cc5F)c(F)cc4F)CC3)n(C[C@@H]3CCO3)c2c1` [Compound 131, (S)-2-((4-(6-(4-chloro-2-fluorobenzyloxy)-3,5-difluoropyridin-2-yl)-5,6-dihydropyridin-1(2H)-yl)methyl)-1-(oxetan-2-ylmethyl)-1H-benzo[d]imidazole-6-carboxylic add], the concentration giving a half-maximal response (EC50) was at most 15 nM.

For the compound `O=C(O)c1ccc2nc(CN3CC=C(c4cc(OCc5ccc(Cl)cc5F)c(F)cc4F)CC3)n(C[C@@H]3CCO3)c2c1` [Compound 132, (S)-2-((4-(5-((4-chloro-2-fluorobenzyl)oxy)-2H-difluorophenyl)-3,6-dihydropyridin-1(2H)-yl)methyl)-1-(oxetan-2-ylmethyl)-1H-benzo[d]imidazole-6-carboxylic acid], the half-maximal effective concentration (EC50) is at most 1000 nM.

Take `O=C(O)c1ccc2nc(CN3CC=C(c4nc(NCc5ccc(Cl)cc5F)c(F)cc4F)CC3)n(C[C@@H]3CCO3)c2c1` [Compound 133, (S)-2-((4-(6-(4-chloro-2-fluorobenzylamino)-3,5-difluoropyridin-2-yl)-5,6-dihydropyridin-1(2H)-yl)methyl)-1-(oxetan-2-ylmethyl)-1H-benzo[d]imidazole-6-carboxylic acid]: the EC50 is at most 15 nM.

For the compound `O=C(O)c1ccc2nc(CN3CC=C(c4cccc(OCc5cccc(C(F)(F)F)c5)n4)CC3)n(C[C@@H]3CCO3)c2c1` [Compound 134, (S)-1-(oxetan-2-ylmethyl)-2-((6-((3-(trifluoromethyl)benzyl)oxy)-3′,6′-dihydro-[2,4′-bipyridin]-1′(2H)-yl)methyl)-1H-benzo[d]imidazole-6-carboxylic acid], the EC50 is at most 15 nM.

For the compound `O=C(O)c1ccc2nc(CN3CC=C(c4cccc(OCc5ccccc5C(F)(F)F)n4)CC3)n(C[C@@H]3CCO3)c2c1` [Compound 135, (S)-1-(oxetan-2-ylmethyl)-2-((6-((2-(trifluoromethyl)benzyl)oxy)-3′,6′-dihydro-[2,4′-bipyridin]-1′(2′H)-yl)methyl)-1H-benzo[d]imidazole-6-carboxylic acid], the EC50 is at most 150 nM.

Consider `O=C(O)c1ccc2nc(CN3CC=C(c4cccc(OCc5ccccc5Cl)n4)CC3)n(C[C@@H]3CCO3)c2c1` [Compound 136, (S)-2-((6-((2-chlorobenzyl)oxy)-3′,6′-dihydro-[2,4′-bipyridin]-1′(2′H)-yl)methyl)-1-(oxetan-2-ylmethyl)-1H-benzo[d]imidazole-6-carboxylic acid], for which the EC50 was at most 15 nM.

Turning to `O=C(O)c1ccc2nc(CN3CC=C(c4cccc(OCc5cccc(Cl)c5)n4)CC3)n(C[C@@H]3CCO3)c2c1` [Compound 137, (S)-2-((6-((3-chlorobenzyl)oxy)-3′,6′-dihydro-[2,4′-bipyridin]-1′(2′H)-yl)methyl)-1-(oxetan-2-ylmethyl)-1H-benzo[d]imidazole-6-carboxylic add], the concentration giving a half-maximal response (EC50) is at most 1000 nM.

`O=C(O)c1ccc2nc(CN3CC=C(c4cccc(OCc5c(Cl)cccc5Cl)n4)CC3)n(C[C@@H]3CCO3)c2c1` [Compound 138]: the EC50 is at most 1000 nM.

Regarding `O=C(O)c1ccc2nc(CN3CC=C(c4cccc(OCc5cc(Cl)cc(Cl)c5)n4)CC3)n(C[C@@H]3CCO3)c2c1` [Compound 139, (S)-2-((6-((3,5-dichlorobenzyl)oxy)-3′,6′-dihydro-[2,4′-bipyridin]-1′(2′H)-yl)methyl)-1-(oxetan-2-ylmethyl)-1H-benzo[d]imidazole-6-carboxylic acid], the EC50 was at most 150 nM.

Regarding `O=C(O)c1ccc2nc(CN3CC=C(c4cccc(OCc5cc(Cl)ccc5F)n4)CC3)n(C[C@@H]3CCO3)c2c1` [Compound 140, (S)-2-((6-((5-chloro-2-fluorobenzyl)oxy)-3′,6′-dihydro-[2,4′-bipyridin]-1′(2′H)-yl)methyl)-1-(oxetan-2-ylmethyl)-1H-benzo[d]imidazole-6-carboxylic add], the EC50 is at most 150 nM.

Regarding `O=C(O)c1ccc2nc(CN3CC=C(c4cccc(OCc5ccc(F)cc5F)n4)CC3)n(C[C@@H]3CCO3)c2c1` [Compound 141, (S)-2-((6-((2H-difluorobenzyl)oxy)-5′,6′-dihydro-[2,4′-bipyridin]-1′(2′H)-yl)methyl)-1-(oxetan-2-ylmethyl)-1H-benzo[d]imidazole-6-carboxylic add], the EC50 is at most 15 nM.

As to `O=C(O)c1ccc2nc(CN3CC=C(c4cccc(OCc5cc(F)cc(F)c5)n4)CC3)n(C[C@@H]3CCO3)c2c1` [Compound 142, (S)-2-((6-((3,5-difluorobenzyl)oxy)-3′,6′-dihydro-[2,4′-bipyridin]-1′(2′H)-yl)methyl)-1-(oxetan-2-ylmethyl)-1H-benzo[d]imidazole-6-carboxylic acid], the EC50 was at most 150 nM.

For `O=C(O)c1ccc2nc(CN3CC=C(c4cccc(OCc5cc(Cl)cc(C(F)(F)F)c5)n4)CC3)n(C[C@@H]3CCO3)c2c1` [Compound 143, (S)-2-((6-((3-chloro-5-(trifluoromethyl)benzyl)oxy)-3′,6′-dihydro-[2H′-bipyridin]-1′(2′H)-yl)methyl)-1-(oxetan-2-ylmethyl)-1H-benzo[d]imidazole-6-carboxylic acid], the EC50 is at most 15 nM.

In the case of `O=C(O)c1ccc2nc(CN3CC=C(c4cccc(OCc5ccc(F)cc5Cl)n4)CC3)n(C[C@@H]3CCO3)c2c1` [Compound 144, (S)-2-((6-((2-chloro-4-fluorobenzyl)oxy)-3′,6′-dihydro-[2,4′-bipyridin]-1′(2′H)-yl)methyl)-1-(oxetan-2-ylmethyl)-1H-benzo[d]imidazole-6-carboxylic acid], the EC50 was at most 15 nM.

As to `O=C(O)c1ccc2nc(CN3CC=C(c4cccc(OCc5ccc(F)c(F)c5)n4)CC3)n(C[C@@H]3CCO3)c2c1` [Compound 145, (S)-2-((6((3,4-difluorobenzyl)oxy)-3′,6′-dihydro-[2,4′-bipyridin]-1′(2′H)-yl)methyl)-1-(oxetan-2-ylmethyl)-1H-benzo[d]imidazole-6-carboxylic acid], the EC50 was at most 15 nM.

Take `Cc1ccc(COc2cccc(C3=CCN(Cc4nc5ccc(C(=O)O)cc5n4C[C@@H]4CCO4)CC3)n2)cc1` [Compound 146, (S)-2-((6-((4-methylbenzyl)oxy)-3′,6′-dihydro-[2,4′-bipyridin]-1′(2′H)-yl)methyl)-1-(oxetan-2-ylmethyl)-1H-benzo[d]imidazole-6-carboxylic acid]: the EC50 is at most 15 nM.

Take `CC(C)(C)c1ccc(COc2cccc(C3=CCN(Cc4nc5ccc(C(=O)O)cc5n4C[C@@H]4CCO4)CC3)n2)cc1` [Compound 147, (S)-2-((6-((4-(tert-butyl)benzyl)oxy)-5′,6′-dihydro-[2,4′-bipyridin]-1′(2H)-yl)methyl)-1-(oxetan-2-ylmethyl)-1H-benzo[d]imidazole-6-carboxylic add]: the EC50 is at most 1000 nM.

For the compound `CC(C)c1ccc(COc2cccc(C3=CCN(Cc4nc5ccc(C(=O)O)cc5n4C[C@@H]4CCO4)CC3)n2)cc1` [Compound 148], the EC50 was at most 15 nM.

`O=C(O)c1ccc2nc(CN3CC=C(c4cccc(OCc5ncc(C(F)(F)F)cc5F)n4)CC3)n(C[C@@H]3CCO3)c2c1` [Compound 149, (S)-2-((6-((3-fluoro-5-(trifluoromethyl)pyridin-2-yl)methoxy)-3′,6′-dihydro-[2H′-bipyridin]-1′(2′II)-yl)methyl)-1-(oxetan-2-ylmethyl)-1H-benzo[d]imidazole-6-carboxylic acid]: the EC50 was at most 15 nM.

Consider `O=C(O)c1ccc2nc(CN3CC=C(c4cccc(OCc5cnccc5C(F)(F)F)n4)CC3)n(C[C@@H]3CCO3)c2c1` [Compound 150, (S)-1-(oxetan-2-ylmethyl)-2-((6-((4-(trifluoromethyl)pyridin-3-yl)methoxy)-3′,6′-dihydro-[2,4′-bipyridin]-1′(2′H)-yl)methyl)-1H-benzo[d]imidazole-6-carboxylic add], for which the EC50 was at most 1000 nM.

Consider `O=C(O)c1ccc2nc(CN3CC=C(c4cccc(OCc5ccc6c(c5)OCCO6)n4)CC3)n(C[C@@H]3CCO3)c2c1` [Compound 151, (S)-2-((6-((2,3-dihydrobenzo[b][1,4]dioxin-6-yl)methoxy)-3′,6′-dihydro-[2,4′-bipyridin]-1′(2′H)-yl)methyl)-1-(oxetan-2-ylmethyl)-1H-benzo[d]imidazole-6-carboxylic add], for which the concentration giving a half-maximal response (EC50) is at most 15 nM.

As a reminder, the EC50 is the concentration at which the effect is half-maximal.
